According to patent US20160176867A1, “MODIFIED BET-PROTEIN-INHIBITING DIHYDROQUINOXALINONES AND DIHYDROPYRIDOPYRAZINONES” (BAYER PHARMA AKTIENGESELLSCHAFT, priority 2013, published 2016):

Tests used:
[1] = test system: B16F10 cells; assay: Cell proliferation assay (alamarBlue), B16F10; assay type: cell-based; settings: Mus musculus, B16-F10; B16F10 (melanoma, BRAF wild-type), 96 hours
Protocol: (§1) In accordance with the invention, the ability of the substances to inhibit cell proliferation was determined. Cell viability was determined by means of the alamarBlue® reagent (Invitrogen) in a Victor X3 Multilabel Reader (Perkin Elmer). The excitation wavelength was 530 nm and the emission wavelength […].
The B16F10 cells (ATCC, CRL-6475) were sown at a concentration of 300-500 cells/well in 100 μl of growth medium (DMEM with phenol red, 10% FCS) on 96-well microtitre plates.
(§2) After overnight incubation at 37° C., the fluorescence values were determined (CI values). Then the plates were treated with various substance dilutions (1E-5 M, 3E-6 M, 1E-6 M, 3E-7 M, 1E-7 M, 3E-8 M, 1E-8 M) and incubated at 37° C. over 96 hours (MOLM-13, B16F10, CHL-1 cells) or 120 hours (MOLP-8 cells). Subsequently, the fluorescence values were determined (CO values). For the data analysis, the CI values were subtracted from the CO values and the results were compared between cells which had been treated with various dilutions of the substance or only with buffer solution. The IC50 values (substance concentration needed for 50% inhibition of cell proliferation) were calculated therefrom.

[2] = target: T1, BRD4 bromo domain 1 [BRD4(1)] (Homo sapiens, UniProt O60885); assay: BRD4/acetylated peptide H4 binding assay (TR-FRET), BRD4 bromo domain 1; settings: inhibition of BRD4(1)/Ac-H4 peptide interaction
T1 construct: N-terminally His6-tagged BRD4(1) (amino acids 67-152); made in house; host or cells: E. coli
Summary of the method: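 TR-FRET (665/620 nm ratio) measuring displacement of biotinylated tetra-acetylated H4 peptide from His6-BRD4(1) (aa 67-152, E. coli; typically 10 nM) at pH 7.5. Compound (11 concentrations, 0.1 nM–20 μM, duplicates) was preincubated 10 min at 22°C, then 1 h at 22°C and ≥3 h at 4°C; IC50 from 4-parameter fit normalized to DMSO and no-BRD4 controls.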

[3] = test system: MOLM-13 cells; assay: Cell proliferation assay (alamarBlue), MOLM-13; assay type: cell-based; settings: Homo sapiens; MOLM-13 (acute myeloid leukaemia), 96 hours
Protocol: as §1
The MOLM-13 cells (DSMZ, ACC 554) were sown at a concentration of 4000 cells/well in 100 μl of growth medium (RPMI1640, 10% FCS) on 96-well microtitre plates.
as §2

Row | IC50 [1] [nM] | IC50 [2] [nM] | IC50 [3] [nM] | Compound
1 | 2430 | 956 | 1440 | CC1C(=O)N(C)c2ccc(Nc3cccc(C(=O)NC4CCN(C)CC4)c3)nc2N1c1ccccc1 (racemic) [Example 104, 3-[(1,3-dimethyl-2-oxo-4-phenyl-1,2,3.4-tetrahydropyrido[2,3-b]pyrazin-6-yl)amino]-A-(1-methylpiperidin-4-yl)benzamide]
2 | 1080 | 108 | 511 | C[C@@H]1C(=O)N(C)c2ccc(Nc3cccc(C(=O)N4CCN(C)CC4)c3)nc2N1C1CCOCC1 [Example 15, (3R)-1,3-Dimethyl-6-({3-[(4-methylpiperazin-1-yl)carbonyl]phenyl}amino)-4-(tetrahydro-2H-pyran-4-yl)-3,4-dihydropyrido[2,3-b]pyrazin-2(1H)-one]
3 | 556 | 58 | 175 | C[C@@H]1C(=O)N(C)c2ccc(Nc3cccc(S(=O)(=O)NC4CCN(C)CC4)c3)nc2N1C1CCOCC1 [Example 20, 3-{[(3R)-1,3-Dimethyl-2-oxo-4-(tetrahydro-2H-pyran-4-yl)-1,2,3,4-tetrahydropyrido[2,3-b]pyrazin-6-yl]amino}-N-(1-methylpiperidin-4-yl)benzenesulphonamide]
4 | 626 | 48 | 237 | C[C@@H]1C(=O)N(C)c2ccc(Nc3cccc(S(=O)(=O)NCCN(C)C)c3)nc2N1C1CCOCC1 [Example 21]
5 | 202 | 23 | 55 | CC(C)N1c2nc(Nc3cccc(S(=O)(=O)N[C@H]4CC[C@H](N5CCN(CC6CC6)CC5)CC4)c3)ccc2N(C)C(=O)[C@H]1C [Example 34, N-{trans-4-[4-(cyclopropylmethyl)piperazin-1-yl]cyclohexyl}-3-{[(3R)-4-isopropyl-1,3-dimethyl-2-oxo-1,2,3,4-tetrahydropyrido[2,3-b]pyrazin-6-yl]amino}-benzenesulphonamide]
6 | 146 | 26 | 140 | C[C@@H]1C(=O)N(C)c2ccc(Nc3cccc(S(=O)(=O)N[C@H]4CC[C@H](N5CCN(CC6CC6)CC5)CC4)c3)nc2N1C1CCOCC1 [Example 35, N-{trans-4-[4-(cyclopropylmethyl)-piperazin-1-yl]cyclohexyl}-3-{[(3R)-1,3-dimethyl-2-oxo-4-(tetrahydro-2H-pyran-4-yl)-1,2,3,4-tetrahydropyrido[2,3-b]pyrazin-6-yl]amino}-benzenesulphonamide]
7 | 537 | 49 | 196 | CC(C)N1c2nc(Nc3cccc(S(=O)(=O)N4CCN(C)CC4)c3)ccc2N(C)C(=O)[C@H]1C [Example 43, (3R)-4-isopropyl-1,3-dimethyl-6-({3-[(4-methylpiperazin-1-yl)sulphonyl]phenyl}-amino)-3,4-dihydropyrido-[2,3-b]pyrazin-2(1H)-one]
8 | 423 | 77 | 97 | CC(C)N1c2nc(Nc3cccc(S(=O)(=O)NC4CCN(C)CC4)c3)ccc2N(C)C(=O)[C@H]1C [Example 51, 3-{[(3R)-4-isopropyl-1,3-dimethyl-2-oxo-1,2,3,4-tetrahydropyrido[2,3-b]pyrazin-6-yl]amino}-N-(1-methylpiperidin-4-yl)benzenesulphonamide]

Continued, compound first:

Row | Compound | IC50 [1] [nM] | IC50 [2] [nM] | IC50 [3] [nM]
9 | C[C@@H]1C(=O)N(C)c2ccc(Nc3cccc(C(=O)N4CCN(C)CC4)c3)nc2N1C1CCCC1 [Example 1, (3R)-4-Cyclopentyl-1,3-dimethyl-6-({3-[(4-methylpiperazin-1-yl)carbonyl]phenyl}amino)-3,4-dihydropyrido[2,3-b]pyrazin-2(1H)-one] | 661 | 67 | 613
10 | C[C@@H]1C(=O)N(C)c2ccc(Nc3cccc(C(=O)NC4CCN(C)CC4)c3)nc2N1C1CCCC1 [Example 2, 3-{[(3R)-4-Cyclopentyl-1,3-dimethyl-2-oxo-1,2,3,4-tetrahydropyrido[2,3-b]pyrazin-6-yl]amino}-N-(1-methylpiperidin-4-yl)benzamide] | 442 | 94 | 352
11 | C[C@@H]1C(=O)N(C)c2ccc(Nc3cccc(C(=O)NC4CN(C)C4)c3)nc2N1C1CCCC1 [Example 3, 3-{[(3R)-4-Cyclopentyl-1,3-dimethyl-2-oxo-1,2,3,4-tetrahydropyrido[2,3-b]pyrazin-6-yl]amino}-N-(1-methylazetidin-3-yl)benzamide] | 695 | 91 | 296
12 | C[C@@H]1C(=O)N(C)c2ccc(Nc3cccc(C(=O)NCCN(C)C)c3)nc2N1C1CCCC1 [Example 4, 3-{[(3R)-4-Cyclopentyl-1,3-dimethyl-2-oxo-1,2,3,4-tetrahydropyrido[2,3-b]pyrazin-6-yl]amino}-N-[2-(dimethylamino)ethyl]benzamide] | 778 | 144 | 535
13 | C[C@@H]1C(=O)N(C)c2ccc(Nc3cccc(C(=O)N[C@H]4CC[C@H](N5CCN(CC6CC6)CC5)CC4)c3)nc2N1C1CCCC1 [Example 5, 3-{[(3R)-4-Cyclopentyl-1,3-dimethyl-2-oxo-1,2,3,4-tetrahydropyrido[2,3-b]pyrazin-6-yl]amino}-N-{trans-4-[4-(cyclopropylmethyl)piperazin-1-yl]cyclohexyl}benzamide] | 506 | 99 | 326
14 | C[C@@H]1C(=O)N(C)c2ccc(Nc3cccc(S(=O)(=O)N(C)C)c3)nc2N1C1CCOCC1 [Example 6, 3-{[(3R)-1,3-Dimethyl-2-oxo-4-(tetrahydro-2H-pyran-4-yl)-1,2,3,4-tetrahydropyrido[2,3-b]pyrazin-6-yl]amino}-N,N-dimethylbenzenesulphonamide] | 71 | 27 | 53
15 | C[C@@H]1C(=O)N(C)c2ccc(Nc3cccc(S(=O)(=O)N(C)C)c3)cc2N1C1CCOCC1 [Example 7, 3-{[(3R)-1,3-Dimethyl-2-oxo-4-(tetrahydro-2H-pyran-4-yl)-1,2,3,4-tetrahydroguinoxalin-6-yl]amino}-N,N-dimethylbenzenesulphonamide] | 178 | 46 | 149
16 | C[C@@H]1C(=O)N(C)c2ccc(Nc3cccc(S(=O)(=O)N4CCOCC4)c3)cc2N1C1CCOCC1 [Example 8, (3R)-1,3-Dimethyl-6-{[3-(morpholin-4-ylsulphonyl)phenyl]amino}-4-(tetrahydro-2H-pyran-4-yl)-3,4-dihydroquinoxalin-2(1H)-one] | 258 | 79 | 271
17 | C[C@@H]1C(=O)N(C)c2ccc(Nc3cccc(S(=O)(=O)N4CCOCC4)c3)nc2N1C1CCOCC1 [Example 9, (3R)-1,3-Dimethyl-6-{[3-(morpholin-4-ylsulphonyl)phenyl]amino}-4-(tetrahydro-2H-pyran-4-yl)-3,4-dihydropyrido[2,3-b]pyrazin-2(1H)-one] | 78 | 28 | 66
18 | COc1ccc(CN2c3cc(Nc4cccc(S(=O)(=O)N(C)C)c4)ccc3N(C)C(=O)[C@H]2C)cc1 [Example 10, 3-{[(3R)-4-(4-Methoxybenzyl)-1,3-dimethyl-2-oxo-1,2,3,4-tetrahydroquinoxalin-6-yl]amino}-N,N-dimethylbenzenesulphonamide] | 122 | 159 | 233
19 | C[C@@H]1C(=O)N(C)c2ccc(Nc3cccc(S(=O)(=O)N4CCN(C)CC4)c3)nc2N1C1CCOCC1 [Example 12, (3R)-1,3-Dimethyl-6-({3-[(4-methylpiperazin-1-yl)sulphonyl]phenyl}amino)-4-(tetrahydro-2H-pyran-4-yl)-3,4-dihydropyrido[2,3-b]pyrazin-2(1H)-one] | 544 | 56 | 195
20 | C[C@@H]1C(=O)N(C)c2ccc(Nc3cccc(C(=O)NC4CCN(C)CC4)c3)nc2N1C1CCOCC1 [Example 13, 3-{[(3R)-1,3-Dimethyl-2-oxo-4-(tetrahydro-2H-pyran-4-yl)-1,2,3,4-tetrahydropyrido[2,3-b]pyrazin-6-yl]amino}-N-(1-methylpiperidin-4-yl)benzamide] | 840 | 322 | 697
21 | C[C@@H]1C(=O)N(C)c2ccc(Nc3cccc(C(=O)N[C@H]4CC[C@H](N5CCN(CC6CC6)CC5)CC4)c3)nc2N1C1CCOCC1 [Example 14, N-{trans-4-[4-(Cyclopropylmethyl)piperazin-1-yl]cyclohexyl}-3-{[(3R)-1,3-dimethyl-2-oxo-4-(tetrahydro-2H-pyran-4-yl)-1,2,3,4-tetrahydropyrido[2,3-b]pyrazin-6-yl]amino}benzamide] | 809 | 144 | 343
